According to patent publication US7025067B2, “Activated charcoal filter for effectively reducing p-benzosemiquinone from the mainstream cigarette smoke” (Council of Scientific and Industrial Research, priority 2001, dated 2006):
Where two headings read alike, the source gives them in different places.

## p-benzosemiquinone [p-BSQ]
Aqueous solution at pH 7.4
  half-life of p-BSQ: about 1.5 hours
Solid state at the room temperature
  half-life of p-BSQ: 48 h
